Assay results as given in patent publication US9809623B2, “α4β7 peptide monomer and dimer antagonists” (Protagonist Therapeutics, Inc., priority 2014, dated 2017).
Numbered stars: 1 amine (or outer) side, 2 acyl side, 3 side chain; on linkers, the order of the positions; unused ones are H or OH. Bridge positions count the residues as written; N and C are the ends. Square brackets hold non-standard residues; d marks the D form. Peptide text beside a SMILES is read from it. I, II: the chains in the order shown. 2Nal = N[C@@H](Cc1ccc2ccccc2c1)C(=O)O; Diglycolyl = O=C(COCC(=O)[*:2])[*:1]; NMeR = CN[C@@H](CCCNC(=N)N)C(=O)O; NMeK = CN[C@@H](CCCCN)C(=O)O; Pen = CC(C)(S)[C@H](N)C(=O)O

Experiment: Intestinal Wash Assay
Format: in vitro ADME
Design: dose or concentration left out as unconfirmed
Details: rat, rat intestinal wash fluid (small intestine); Table 4-C, t1/2
Method: Intestinal wash assay solution was prepared from rats fasted for at least 6 hours prior. The animals were euthanized and a midline incision was made from the point of the jaw to the pubis. The abdomen and chest were opened by making 2 incisions through the anterior chest wall on either side. Hemostats were used to clamp off both ends of the animal's stomach—where the esophagus meets the stomach and where the stomach meets the duodenum. A hemostat was also used to clamp 2-3 cm down the intestine from where the stomach meets the duodenum.
Intestinal wash assay solution was prepared by separating 20 cm of the small intestine from the body. Once separated 20 cm, the end was clamped with a hemostat and the section cut from the body, leaving the hemostats in place on the removed section. 1 mL of chilled saline was drawn up with a 1 mL syringe. One end of the intestine was held up and the clamp removed. Approximately 2-2.5 cm of the gavage needle was inserted into the intestine, and the saline was slowly injected. The fluid was massaged down the length of the intestine using gloved fingers. The gavage needle was removed and the clamp was replaced on the end of the intestine. The intestine was sat straight and a q-tip was run firmly up and down the length of the outside of the intestine approximately 3-6 times to mix the enzymes with the saline. One end of the intestine was held up and some of the fluid was carefully moved at the top down. The clamp was removed and that end of the intestine was set into a small weigh boat on ice. The other end of the intestine was carefully picked up and held vertically. Gloved fingers were gently run down it to squeeze the fluid into the container. The previous steps saline injection and fluid procurement steps were repeated twice using only 0.5 mL of chilled saline. The sample was pipetted from the weigh boat into a centrifuge tube and placed on ice. All intestinal wash samples were spun down in a cold centrifuge at 12,000×g for 10 minutes. The supernatant from the top of each centrifuged sample was pipetted into cryotubes, and kept on ice until use.
Intestinal wash assays were performed using intestinal wash assay solution prepared as described above. A sufficient amount of rat intestinal wash was thawed. For each sample, 200 uL of rat intestinal wash fluid was pipetted into 1.5 mL Eppendorf tubes (number of tubes for experiment=number of test peptides×N). The tubes were pre-incubated for about 10 minutes in a water bath at 37° C.
Peptide working solutions ([…]) were prepared by combining 2 μl of 10 mM DMSO stock with 128 μl 100 mM Tris pH 7.5.
Peptide quench solvent (50% ACN-50% MeOH-5% Formic Acid)+IS (5 ug/ml; 1 ul of 10 mg/mL IS per 2 mL quench solvent) was prepare and a quench plate prepared and placed on ice. 200 ul of quench solution was added to each well of the quench plate for T=0, 10, 20, 30, 60 and 180 min collection.
For each test sample and a positive control, 30 ul of peptide working solution was added to a tube of intestinal wash fluid. The tube was gently vortexed and 30 ul was immediately removed and quenched in T=0 well of quench plate (pipetted directly into the quench solution). This well was covered tightly to prevent evaporation. 30 ul aliquots were removed at T=10 min, T=20 min, T=30 min, T=60 min, and T=180 min, and quenched. When all time points were collected, the quench plate was centrifuged at 10,000 rpm for 10 minutes. 150 uL of each supernatant was transferred to a polypropylene 96-well collection plate. 300 ul Mobile Phase A was added to each collection, and LC/MS/MS analysis was performed to determine the amount or concentration of peptide remaining in each test sample and positive control.

Point of comparison: CC(=O)N[C@H]1CSSC[C@@H](C(=O)NCC(=O)N[C@@H](CCC(=O)O)C(N)=O)NC(=O)[C@H](CC(C)C)NC(=O)[C@H]([C@@H](C)O)NC(=O)[C@H](CC(=O)O)NC(=O)[C@H](CO)NC(=O)[C@H](CCCNC(=N)N)N(C)C1=O [compound 198, Ac-C-N-Me-R-S-D-T-L-C-G-E-NH2] (Ac-C[NMeR]SDTLCGE-NH2; disulfide 1-7), half-life 0.5 h. Against it:
- CC(=O)N[C@@H]1C(=O)N(C)[C@@H](CCCNC(=N)N)C(=O)N[C@@H](CO)C(=O)N[C@@H](CC(=O)O)C(=O)N[C@@H]([C@@H](C)O)C(=O)N[C@@H](CC(C)C)C(=O)N[C@H](C(=O)N[C@@H](Cc2c[nH]c3ccccc23)C(=O)N[C@@H](CCC(=O)O)C(=O)N(C)[C@@H](CCCCNC(=O)COCC(=O)NCCCC[C@@H](C(N)=O)N(C)C(=O)[C@H](CCC(=O)O)NC(=O)[C@H](Cc2c[nH]c3ccccc23)NC(=O)[C@H]2NC(=O)[C@H](CC(C)C)NC(=O)[C@H]([C@@H](C)O)NC(=O)[C@H](CC(=O)O)NC(=O)[C@H](CO)NC(=O)[C@H](CCCNC(=N)N)N(C)C(=O)[C@@H](NC(C)=O)C(C)(C)SSC2(C)C)C(N)=O)C(C)(C)SSC1(C)C [compound 215, [Ac-Pen-(N-Me-Arg)-Ser-Asp-Thr-Leu-Pen-Trp-Glu-(N-Me-Lys)-NH2]2-DIG] (I: Ac-[Pen][NMeR]SDTL[Pen]WE[NMeK]-NH2 / II: Ac-[Pen][NMeR]SDTL[Pen]WE[NMeK]-NH2; disulfide I:1-I:7, II:1-II:7 (inferred); linker I:10-II:10 via Diglycolyl (inferred)) — higher, > 6 h
- CC(=O)N[C@@H]1C(=O)N(C)[C@@H](CCCNC(=N)N)C(=O)N[C@@H](CO)C(=O)N[C@@H](CC(=O)O)C(=O)N[C@@H]([C@@H](C)O)C(=O)N[C@@H](CC(C)C)C(=O)N[C@H](C(=O)N[C@@H](Cc2ccc3ccccc3c2)C(=O)N[C@@H](CCC(=O)O)C(=O)N[C@H](CCCCNC(=O)COCC(=O)NCCCC[C@@H](NC(=O)[C@H](CCC(=O)O)NC(=O)[C@H](Cc2ccc3ccccc3c2)NC(=O)[C@H]2NC(=O)[C@H](CC(C)C)NC(=O)[C@H]([C@@H](C)O)NC(=O)[C@H](CC(=O)O)NC(=O)[C@H](CO)NC(=O)[C@H](CCCNC(=N)N)N(C)C(=O)[C@@H](NC(C)=O)C(C)(C)SSC2(C)C)C(N)=O)C(N)=O)C(C)(C)SSC1(C)C [compound 212, (Ac-Pen-N-Me-R-S-D-T-L-Pen-2-Nal-E-k-NH2)2-DIG] (I: Ac-[Pen][NMeR]SDTL[Pen][2Nal]E[dK]-NH2 / II: Ac-[Pen][NMeR]SDTL[Pen][2Nal]E[dK]-NH2; disulfide I:1-I:7, II:1-II:7 (inferred); linker I:10-II:10 via Diglycolyl (inferred)) — 3.3-fold higher, 1.63 h
- CC(=O)N[C@@H]1C(=O)N(C)[C@@H](CCCNC(=N)N)C(=O)N[C@@H](CO)C(=O)N[C@@H](CC(=O)O)C(=O)N[C@@H]([C@@H](C)O)C(=O)N[C@@H](CC(C)C)C(=O)N[C@H](C(=O)N[C@@H](Cc2c[nH]c3ccccc23)C(=O)N[C@H](CCC(=O)O)C(=O)N[C@H](CCCCNC(=O)COCC(=O)NCCCC[C@@H](NC(=O)[C@@H](CCC(=O)O)NC(=O)[C@H](Cc2c[nH]c3ccccc23)NC(=O)[C@H]2NC(=O)[C@H](CC(C)C)NC(=O)[C@H]([C@@H](C)O)NC(=O)[C@H](CC(=O)O)NC(=O)[C@H](CO)NC(=O)[C@H](CCCNC(=N)N)N(C)C(=O)[C@@H](NC(C)=O)C(C)(C)SSC2(C)C)C(N)=O)C(N)=O)C(C)(C)SSC1(C)C [compound 211, (Ac-Pen-N-Me-R-S-D-T-L-Pen-W-e-k-NH2)2-DIG] (I: Ac-[Pen][NMeR]SDTL[Pen]W[dE][dK]-NH2 / II: Ac-[Pen][NMeR]SDTL[Pen]W[dE][dK]-NH2; disulfide I:1-I:7, II:1-II:7 (inferred); linker I:10-II:10 via Diglycolyl (inferred)) — 6-fold higher, 2.98 h

Experiment: Plasma Stability Assay
Format: in vitro ADME
Details: rat, Table 4-C, t1/2
Method: 0.5 mL of rat plasma (one tube per peptide, volume depends on how many time points are to be collected, 50 μL per time point) was added to each well of a 96-well polypropylene plate, and the tubes were incubated in a heated water bath, preset to 37° C. with gentle shaking. 1 μL of 10 mM peptide stock solution was added to each tub, and then 200 μL of Acetonitrile w/0.1% Formic Acid was added to each tube (1:4). Samples were collected at the following time points: 0, 10, 30, 45, 60, 120, 180 mins. When all time points were collected, the plate was centrifuged at 5000 rpm for 5 mins. LCM analysis was performed by pipetting 100 μL of each sample to appropriate well of a 96-well deep plate. 100 μL of an internal standard peptide (1 ug/mL) was added in Mobile Phase A to each well. The plate was vortexed and injected

Point of comparison: CC(=O)N[C@H]1CSSC[C@@H](C(=O)NCC(=O)N[C@@H](CCC(=O)O)C(=O)N[C@@H](CCCCN)C(=O)O)NC(=O)[C@H](CC(C)C)NC(=O)[C@H]([C@@H](C)O)NC(=O)[C@H](CC(=O)O)NC(=O)[C@H](CO)NC(=O)[C@H](CCCNC(=N)N)N(C)C1=O [compound 199, Ac-C-N-Me-R-S-D-T-L-C-G-E-K-OH] (Ac-C[NMeR]SDTLCGEK-OH; disulfide 1-7), half-life at 20 μM 1.35 h. Against it:
- CC(=O)N[C@H]1CSSC(C)(C)[C@@H](C(=O)N[C@@H](CCC(=O)O)C(=O)N[C@H](CCCCNC(=O)COCC(=O)NCCCC[C@@H](NC(=O)[C@H](CCC(=O)O)NC(=O)[C@H]2NC(=O)[C@H](CC(C)C)NC(=O)[C@H]([C@@H](C)O)NC(=O)[C@H](CC(=O)O)NC(=O)[C@H](CO)NC(=O)[C@H](CCCNC(=N)N)N(C)C(=O)[C@@H](NC(C)=O)CSSC2(C)C)C(N)=O)C(N)=O)NC(=O)[C@H](CC(C)C)NC(=O)[C@H]([C@@H](C)O)NC(=O)[C@H](CC(=O)O)NC(=O)[C@H](CO)NC(=O)[C@H](CCCNC(=N)N)N(C)C1=O [compound 205, (Ac-C-N-Me-R-S-D-T-L-Pen-E-k-NH2)2-DIG] (I: Ac-C[NMeR]SDTL[Pen]E[dK]-NH2 / II: Ac-C[NMeR]SDTL[Pen]E[dK]-NH2; disulfide I:1-I:7, II:1-II:7 (inferred); linker I:9-II:9 via Diglycolyl (inferred)) — higher, > 6 h
- CC(=O)N[C@@H]1C(=O)N(C)[C@@H](CCCNC(=N)N)C(=O)N[C@@H](CO)C(=O)N[C@@H](CC(=O)O)C(=O)N[C@@H]([C@@H](C)O)C(=O)N[C@@H](CC(C)C)C(=O)N[C@H](C(=O)N[C@@H](Cc2c[nH]c3ccccc23)C(=O)N[C@@H](CCC(=O)O)C(=O)N(C)[C@@H](CCCCNC(=O)COCC(=O)NCCCC[C@@H](C(N)=O)N(C)C(=O)[C@H](CCC(=O)O)NC(=O)[C@H](Cc2c[nH]c3ccccc23)NC(=O)[C@H]2NC(=O)[C@H](CC(C)C)NC(=O)[C@H]([C@@H](C)O)NC(=O)[C@H](CC(=O)O)NC(=O)[C@H](CO)NC(=O)[C@H](CCCNC(=N)N)N(C)C(=O)[C@@H](NC(C)=O)C(C)(C)SSC2(C)C)C(N)=O)C(C)(C)SSC1(C)C [compound 215, [Ac-Pen-(N-Me-Arg)-Ser-Asp-Thr-Leu-Pen-Trp-Glu-(N-Me-Lys)-NH2]2-DIG] (I: Ac-[Pen][NMeR]SDTL[Pen]WE[NMeK]-NH2 / II: Ac-[Pen][NMeR]SDTL[Pen]WE[NMeK]-NH2; disulfide I:1-I:7, II:1-II:7 (inferred); linker I:10-II:10 via Diglycolyl (inferred)) — higher, > 6 h
- CC(=O)N[C@H]1CSSC[C@@H](C(=O)NCC(=O)N[C@@H](CCC(=O)O)C(=O)N[C@@H](CCCCNC(=O)COCC(=O)NCCCC[C@H](NC(=O)[C@H](CCC(=O)O)NC(=O)CNC(=O)[C@@H]2CSSC[C@H](NC(C)=O)C(=O)N(C)[C@@H](CCCNC(=N)N)C(=O)N[C@@H](CO)C(=O)N[C@@H](CC(=O)O)C(=O)N[C@@H]([C@@H](C)O)C(=O)N[C@@H](CC(C)C)C(=O)N2)C(=O)O)C(=O)O)NC(=O)[C@H](CC(C)C)NC(=O)[C@H]([C@@H](C)O)NC(=O)[C@H](CC(=O)O)NC(=O)[C@H](CO)NC(=O)[C@H](CCCNC(=N)N)N(C)C1=O [compound 201, (Ac-C-N-Me-R-S-D-T-L-C-G-E-K-OH)2-DIG] (I: Ac-C[NMeR]SDTLCGEK-OH / II: Ac-C[NMeR]SDTLCGEK-OH; disulfide I:1-I:7, II:1-II:7 (inferred); linker I:10-II:10 via Diglycolyl (inferred)) — within 1.5-fold, 2.02 h
- CC(=O)N[C@H]1CSSC(C)(C)[C@@H](C(=O)N[C@H](CCCCN)C(N)=O)NC(=O)[C@H](CC(C)C)NC(=O)[C@H]([C@@H](C)O)NC(=O)[C@H](CC(=O)O)NC(=O)[C@H](CO)NC(=O)[C@H](CCCNC(=N)N)N(C)C1=O [compound 202, Ac-C-N-Me-R-S-D-T-L-Pen-k-NH2] (Ac-C[NMeR]SDTL[Pen][dK]-NH2; disulfide 1-7) — higher, > 6 h
